Values belong to the compound of their own block, whether it stands above or below them.
Tests used:
[1] = "at levels of up to 10%"; cited from earlier work
[2] = tested on: skin of a subject's left arm (elastic fibers); assay: Histology of elastin (VVG stained) punch biopsy, treated vs untreated skin; type: in vivo, human; conditions: 25% dimethyl isosorbide solution, topical, 24 days, vs untreated skin of same subject
Protocol: The skin of a subject's left arm was treated with a 25% dimethyl isosorbide solution of glucosyl pentagallate for 24 days.

[3] = tested on: skin of a subject's left arm; assay: Histology of polyphenol-stained (ferric chloride) punch biopsy, treated vs untreated skin; type: in vivo, human; conditions: 25% dimethyl isosorbide solution, topical, 24 days, vs untreated skin of same subject
Protocol: The skin of a subject's left arm 2 cm^2 patch (upper under arm above elbow) was treated with a 25% dimethyl isosorbide solution of glucosyl pentagallate for 24 days. Biopsy samples of the treated skin and a similar sample of untreated skin from the same subject's right were then taken, sectioned, and stained for polyphenol (Ferric Chloride stain) and imaged with a light microscope.

human cells = human cells in vitro; cited from earlier work

SMILES: NCCCC(=O)O [GABA, γ-aminobutyric acid]
improvement of skin elasticity [1]: up to 10%

polyphenol (ferric chloride) staining of the dermis, showing glucosyl pentagallate in the dermis [3]: more black staining in the dermis
SMILES: O=C(OC[C@H]1O[C@@H](OC(=O)c2cc(O)c(O)c(O)c2)[C@H](OC(=O)c2cc(O)c(O)c(O)c2)[C@@H](OC(=O)c2cc(O)c(O)c(O)c2)[C@@H]1OC(=O)c1cc(O)c(O)c(O)c1)c1cc(O)c(O)c(O)c1 [glucosyl pentagallate]
VVG staining of elastic fibers (levels of elastin fibers) [2]: significant black staining

SMILES: CC1=NC(C(=O)O)CCN1 (stereo not shown) [Ectoin, 1,4,5,6-tetrahydro-2-methyl-4-pyrimidinecarboxylic acid]
cell damage from UV and visible light (human cells): prevent cell damage from UV and visible light

— patent publication US20230240964A1, “SKIN-FIRMING COSMETIC COMPOSITIONS” (Elastintech, Inc., priority 2021, published 2023)
